Columns and labels:
[1] = target: recombinant human CK2 (Homo sapiens (Human), UniProt P68400); experiment: CK2 assay (cell-free, 33P-ATP filter plate); assay type: biochemical; details: for inhibition at 5 µM: read-out: CK2 Inhibition; for inhibition at 10 µM: read-out: CK2 % inhib @ 10 uM
[2] = target: PARP-HSA enzyme (Homo sapiens (Human), UniProt P09874); experiment: PARP assay (chemiluminescent PARP assay kit, Trevigen); assay type: biochemical; details: for IC50: read-out: PARP Inhibition IC50
Chain of PARP-HSA enzyme (P09874 whole entry): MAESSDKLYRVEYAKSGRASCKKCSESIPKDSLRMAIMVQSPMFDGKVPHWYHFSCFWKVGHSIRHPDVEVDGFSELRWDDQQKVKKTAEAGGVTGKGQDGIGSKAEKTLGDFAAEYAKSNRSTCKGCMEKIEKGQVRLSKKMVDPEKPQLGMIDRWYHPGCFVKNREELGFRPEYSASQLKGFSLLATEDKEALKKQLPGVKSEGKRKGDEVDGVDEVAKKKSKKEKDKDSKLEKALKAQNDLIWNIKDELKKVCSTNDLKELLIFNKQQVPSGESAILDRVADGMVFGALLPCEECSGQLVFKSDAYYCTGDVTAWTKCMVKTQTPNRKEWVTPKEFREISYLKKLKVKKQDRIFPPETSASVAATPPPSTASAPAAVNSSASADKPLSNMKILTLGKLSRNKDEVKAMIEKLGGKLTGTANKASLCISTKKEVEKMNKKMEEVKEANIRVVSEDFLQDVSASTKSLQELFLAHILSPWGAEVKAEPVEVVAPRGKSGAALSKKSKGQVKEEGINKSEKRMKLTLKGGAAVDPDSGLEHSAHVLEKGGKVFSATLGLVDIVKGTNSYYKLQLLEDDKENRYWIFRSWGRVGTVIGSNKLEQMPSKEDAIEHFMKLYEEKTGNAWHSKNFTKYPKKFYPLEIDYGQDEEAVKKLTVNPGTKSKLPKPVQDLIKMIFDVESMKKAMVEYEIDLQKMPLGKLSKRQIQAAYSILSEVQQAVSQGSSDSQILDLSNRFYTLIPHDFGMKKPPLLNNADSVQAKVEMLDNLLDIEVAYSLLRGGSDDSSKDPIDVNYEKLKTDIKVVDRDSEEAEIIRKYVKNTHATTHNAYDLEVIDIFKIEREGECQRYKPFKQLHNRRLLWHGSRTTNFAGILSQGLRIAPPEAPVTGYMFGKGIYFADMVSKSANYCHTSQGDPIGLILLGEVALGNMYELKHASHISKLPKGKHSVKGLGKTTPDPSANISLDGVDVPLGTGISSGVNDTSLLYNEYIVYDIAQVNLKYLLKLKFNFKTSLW
Procedure: Modulatory activity of compounds described herein was assessed in vitro in cell-free CK2 assays. Modulatory activity of compounds described herein also are assessed in vitro in cell-free PARP assays. These assays are described hereafter.
PARP assays are conducted using a chemiluminescent PARP assay kit (Trevigen). Briefly, reactions are performed in Histone-coated strip wells, by adding 10 microliters test compound dissolved in 1×PARP Buffer (prepared by mixing 20×PARP buffer diluted with high-purity water) and 15 microliters diluted PARP-HSA enzyme (diluted in 1×PARP buffer, 0.1 unit per well) to 25 microliters PARP cocktail (prepared from 10×PARP cocktail and 10× activated DNA, both 2.5 microliters per well and 20 microliters per well of 1×PARP buffer). The reactions are incubated at ambient temperature for 60 minutes, then the liquid was removed. After washing the wells four times with PBS (200 ul), 50 microliters of STREP-HRP (Horseradish Peroxidase) solution (diluted 500-fold in 1× Strep-Diluent) was added and the reactions were allowed to incubate for 30 minutes at ambient temperature. The liquid was removed and, after washing the wells four times with PBS (200 ul), 50 microliters each of PeroxyGlo A and B (Chemiluminescent Horseradish Peroxidase substrates) are added and the resulting chemiluminescence quantified on the SpectraMax M5 plate reader.

[3] = system: MDA MB231; experiment: MDA MB231 IC50 (Table 46); assay type: cell-based; details: Homo sapiens, MDA-MB-231
[4] = system: PC-3 human prostatic cancer cells; experiment: Cell-proliferation assay using Alamar Blue dye; assay type: cell-based; details: read-out: PC3 IC50
Procedure, shortened: (§1)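 Fluorescence (excitation 544 nm, emission 590 nm) is measured four hours after Alamar Blue addition to cells cultured with test compound for four days at 37° C. Wells are seeded with 4,000-5,000 cells.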

[5] = system: K-562; experiment: K-562 IC50 (Table 46); assay type: cell-based; details: Homo sapiens, K562
[6] = target: recombinant human PIM1 (Homo sapiens (Human), UniProt P11309); experiment: PIM-1 kinase activity in cell-free in vitro assay; assay type: biochemical
Chain of recombinant human PIM1 (P11309 whole entry): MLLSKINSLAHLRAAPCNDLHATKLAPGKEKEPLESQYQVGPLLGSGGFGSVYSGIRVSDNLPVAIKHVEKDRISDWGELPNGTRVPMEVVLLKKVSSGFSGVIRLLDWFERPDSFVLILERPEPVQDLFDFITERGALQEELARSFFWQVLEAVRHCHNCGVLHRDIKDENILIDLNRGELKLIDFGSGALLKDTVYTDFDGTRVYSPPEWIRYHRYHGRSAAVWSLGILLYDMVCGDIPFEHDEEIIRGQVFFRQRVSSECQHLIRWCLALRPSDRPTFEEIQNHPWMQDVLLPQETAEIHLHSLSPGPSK

[7] = system: MV-411; experiment: MV-411 IC50 (Table 46); assay type: cell-based; details: Homo sapiens, MV4-11
[8] = system: MiaPaca human pancreatic carcinoma cells; experiment: Cell-proliferation assay using Alamar Blue dye; assay type: cell-based; details: MIA PaCa-2
Procedure, shortened: as §1

[9] = target: FLT3 autophos (Homo sapiens (Human), UniProt P36888); experiment: FLT3 autophos IC50 (Table 46); assay type: cell-based
Chain of FLT3 autophos (P36888 27-993): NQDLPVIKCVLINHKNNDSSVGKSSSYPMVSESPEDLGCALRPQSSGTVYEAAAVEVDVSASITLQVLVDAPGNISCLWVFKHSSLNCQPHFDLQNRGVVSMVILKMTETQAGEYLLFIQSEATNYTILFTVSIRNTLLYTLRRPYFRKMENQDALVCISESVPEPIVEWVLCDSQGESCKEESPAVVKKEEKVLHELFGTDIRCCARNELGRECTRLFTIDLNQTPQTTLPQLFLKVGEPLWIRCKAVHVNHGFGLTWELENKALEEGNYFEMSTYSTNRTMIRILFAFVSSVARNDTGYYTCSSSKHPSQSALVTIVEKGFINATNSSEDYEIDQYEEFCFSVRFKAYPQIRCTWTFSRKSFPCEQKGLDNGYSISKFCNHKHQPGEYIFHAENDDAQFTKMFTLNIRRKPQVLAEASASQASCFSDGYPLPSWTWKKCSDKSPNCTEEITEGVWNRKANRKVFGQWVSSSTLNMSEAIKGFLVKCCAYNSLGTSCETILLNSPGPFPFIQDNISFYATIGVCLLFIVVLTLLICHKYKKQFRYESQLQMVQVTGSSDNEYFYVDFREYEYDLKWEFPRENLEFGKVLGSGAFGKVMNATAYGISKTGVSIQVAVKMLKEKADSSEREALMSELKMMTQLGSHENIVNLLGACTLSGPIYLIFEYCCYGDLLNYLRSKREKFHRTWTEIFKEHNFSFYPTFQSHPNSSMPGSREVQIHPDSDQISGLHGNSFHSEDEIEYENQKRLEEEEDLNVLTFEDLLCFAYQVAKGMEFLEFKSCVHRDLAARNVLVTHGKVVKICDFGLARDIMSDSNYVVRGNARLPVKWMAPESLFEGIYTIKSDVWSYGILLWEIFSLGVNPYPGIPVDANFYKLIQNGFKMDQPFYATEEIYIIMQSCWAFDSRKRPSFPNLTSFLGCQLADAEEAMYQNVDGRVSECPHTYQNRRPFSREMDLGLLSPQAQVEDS

[10] = system: phospho-BAD ser112; experiment: phospho-BAD ser112 IC50 (Table 46); assay type: cell-based
[11] = system: MiaPaca xenografts; experiment: Tumor suppression in MiaPaca xenograft mice; assay type: in vivo, NCr nu/nu mice; details: IV administration
Procedure: Animals were handled under laminar-flow hoods.
Tumor volume measurements (FIG. 3A) and body weight (FIG. 3B) were recorded on days 3, 6, 8, 10, 13 and 15.
Gemzar™ administered at a dose of 80 mg/kg IP Q3D was used as a positive control.

[12] = system: A549; experiment: Cell-proliferation assay using Alamar Blue dye; assay type: cell-based; details: Homo sapiens
Procedure: (§2) A representative cell-proliferation assay protocol using Alamar Blue dye (stored at 4° C., use 20 ul per well) is described hereafter.
(§3) 96-Well Plate Setup and Compound Treatment
(§4) • a. Split and trypsinize cells. • b. Count cells using hemocytometer. • c. Plate 4,000-5,000 cells per well in 100 μl of medium and seed into a 96-well plate according to the following plate layout. Add cell culture medium only to wells B10 to B12. Wells B1 to B9 have cells but no compound added.
(§5) • d. Add 100 μl of 2× drug dilution to each well in a concentration shown in the plate layout above. At the same time, add 100 μl of media into the control wells (wells B10 to B12). Total volume is 200 μl/well. • e. Incubate four (4) days at 37° C., 5% CO2 in a humidified incubator. • f. Add 20 μl Alamar Blue reagent to each well. • g. Incubate for four (4) hours at 37° C., 5% CO2 in a humidified incubator. • h. Record fluorescence at an excitation wavelength of 544 nm and emission wavelength of 590 nm using a microplate reader.
(§6) In the assays, cells are cultured with a test compound for approximately four days, the dye then is added to the cells and fluorescence of […] dye is detected after approximately four hours. Different types of cells can be utilized in the assays (e.g., HCT-116 human colorectal carcinoma cells, PC-3 human prostatic cancer cells and MiaPaca human pancreatic carcinoma cells). Anti-proliferative effects of representative compounds are provided hereafter

[13] = system: LNCaP; experiment: Cell-proliferation assay using Alamar Blue dye; assay type: cell-based; details: Homo sapiens
Procedure: as §2, §3, §4, §5, §6

[14] = system: MCF-7; experiment: Cell-proliferation assay using Alamar Blue dye; assay type: cell-based; details: Homo sapiens, MCF7
Procedure: as §2, §3, §4, §5, §6

[15] = system: MDAMB231; experiment: Cell-proliferation assay using Alamar Blue dye; assay type: cell-based; details: Homo sapiens, MDA-MB-231
Procedure: as §2, §3, §4, §5, §6

[16] = Pharmacokinetics after IV and PO dose in ICR mice; assay type: in vivo; details: for half-life: mouse, plasma
Procedure: […] Blood samples were collected at predetermined times and the plasma separated. Plasma was separated from the blood samples collected at 5, 15 and 30 minutes and 1, 2, 4, 8 and 24 hours post-dose.
Drug levels were quantified by the LC/MS/MS method described below. Noncompartmental pharmacokinetic analysis was applied for intravenous administration. A linear trapezoidal rule was used to compute AUC(0-24). The terminal t1/2 and C0 were calculated using the last three and the first three data points, respectively
Bioanalysis was performed using a Quattro Micro LC/MS/MS instrument in the MRM detection mode, with an internal standard (IS). Briefly, 15 µL plasma samples were prepared for analysis using protein precipitation with 120 μL of acetonitrile. The supernatants were transferred into a 96 well plate and subjected to LC-MS/MS analysis using a Phenomenex Polar-RP HPLC column. The mobile phases were 10 mM NH4HCO3 in water (Solution-A) and 10 mM NH4HCO3 in methanol (Solution-B). […] Quantitation of the analytes was performed in the batch mode with two bracketing calibration curves according to the bioanalytical sample list.

Chain of recombinant human CK2 (P68400 whole entry): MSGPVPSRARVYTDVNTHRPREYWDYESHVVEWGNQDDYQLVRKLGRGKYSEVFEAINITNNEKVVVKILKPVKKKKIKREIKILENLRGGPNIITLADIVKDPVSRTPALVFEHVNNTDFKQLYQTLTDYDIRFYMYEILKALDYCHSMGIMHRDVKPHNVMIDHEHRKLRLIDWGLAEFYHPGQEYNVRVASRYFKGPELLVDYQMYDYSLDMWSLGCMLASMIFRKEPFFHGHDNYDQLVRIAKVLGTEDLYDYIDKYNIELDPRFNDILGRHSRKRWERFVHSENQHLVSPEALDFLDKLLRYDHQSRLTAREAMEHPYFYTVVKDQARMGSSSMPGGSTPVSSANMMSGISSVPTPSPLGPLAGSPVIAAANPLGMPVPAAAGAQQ
Chain of recombinant human CK2 (P67870 whole entry partner): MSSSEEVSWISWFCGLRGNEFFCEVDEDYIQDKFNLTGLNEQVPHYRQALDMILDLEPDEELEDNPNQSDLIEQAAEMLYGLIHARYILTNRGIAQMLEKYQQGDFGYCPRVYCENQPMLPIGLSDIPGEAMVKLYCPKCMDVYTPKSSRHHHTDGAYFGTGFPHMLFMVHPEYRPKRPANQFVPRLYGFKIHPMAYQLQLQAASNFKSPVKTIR

SMILES	IC50 [3] [nM]	IC50 [4] [nM]	IC50 [5] [nM]	IC50 [6] [nM]	IC50 [7] [nM]	IC50 [8] [nM]	IC50 [9] [nM]	IC50 [10] [nM]	other results
O=C(O)c1ccc2c(c1)[nH]c(=O)c1ccccc12	–	–	–	–	–	–	–	–	inhibition at 5 µM [1]: 28%; IC50 [2]: 70 nM
O=C(O)c1ccc2c3ccccc3c(=O)n(CCCO)c2c1	–	–	–	–	–	–	–	–	inhibition at 5 µM [1]: 29%; IC50 [2]: 60 nM
COc1ccc(NC(=O)c2ccc3c(c2)[nH]c(=O)c2ccsc23)c(OC)c1	–	–	–	–	–	–	–	–	inhibition at 10 µM [1]: 3%; PARP % inhib @ 1 uM [2]: 0%
O=C(Nc1ccc(N2CCOCC2)cc1)c1ccc2c(c1)[nH]c(=O)c1ccsc12	–	–	–	–	–	–	–	–	inhibition at 10 µM [1]: -3%; PARP % inhib @ 1 uM [2]: 0%
COc1ccccc1NC(=O)c1ccc2c(c1)[nH]c(=O)c1ccsc12	–	–	–	–	–	–	–	–	inhibition at 10 µM [1]: -7%; PARP % inhib @ 1 uM [2]: 0%
NCc1ccc(Nc2nc3c(-c4nnc[nH]4)cccc3c3cnccc23)cc1	9640	> 30000	> 10000	< 100	< 100	–	–	–	–
CN(C)CCOc1ccc(Nc2nc3c(-c4nnc[nH]4)cccc3c3cnccc23)c(F)c1	2180	12000	< 1000	–	< 100	–	–	–	–
CN1CCN(c2ccc(Nc3nc4c(-c5nnc[nH]5)cccc4c4cnccc34)c(Cl)c2)CC1	2940	3660	< 1000	–	< 100	1500	–	–	–
Fc1cc(OCCN2CCCC2)ccc1Nc1nc2c(-c3nnc[nH]3)cccc2c2cnccc12	< 1000	–	< 500	< 100	< 100	–	> 10000	< 100	–
CN(C)CCOc1ccc(Nc2nc3c(-c4nnc[nH]4)cccc3c3cnccc23)cc1	2560	1760	< 100	< 100	< 100	–	> 10000	< 100	–
CN(C)CCOc1ccc(Nc2nc3c(-c4nnc[nH]4)cccc3c3cnccc23)c(Cl)c1	1230	–	6940	< 100	< 100	–	5410	< 100	–
Clc1cc(OCCN2CCOCC2)ccc1Nc1nc2c(-c3nnc[nH]3)cccc2c2cnccc12	> 10000	> 30000	> 10000	< 100	< 100	–	6010	< 100	–
CS(=O)(=O)c1ccc(Nc2nc3c(-c4nnc[nH]4)cccc3c3cnccc23)c(Cl)c1	2730	1510	2660	< 100	< 100	–	–	–	–
c1cc(-c2nnc[nH]2)c2nc(Nc3ccc(OCCN4CCOCC4)cc3)c3ccncc3c2c1	2040	< 1000	< 500	< 100	< 100	268	> 10000	< 500	–
c1cc(-c2nnc[nH]2)c2nc(NC3CCC3)c3ccncc3c2c1	> 10000	< 500	< 500	< 100	< 100	7620	> 10000	< 100	–
COc1ccc(Nc2nc3c(-c4nnc[nH]4)cccc3c3cnccc23)c(F)c1	6860	< 500	< 1000	< 100	< 100	< 500	> 10000	510	–
c1cc(-c2nnc[nH]2)c2nc(N3CCCC3)c3ccncc3c2c1	> 10000	> 30000	3230	< 500	< 1000	< 100	> 10000	2940	–
c1cc(-c2nnc[nH]2)c2nc(NC3CCCC3)c3ccncc3c2c1	> 10000	> 30000	1930	< 100	< 500	–	> 10000	< 500	–
CCOC(=O)c1ccc(Nc2nc3c(-c4nnc[nH]4)cccc3c3cnccc23)c(Cl)c1	> 10000	> 30000	> 10000	< 100	< 100	> 10000	–	–	–
FC(F)(F)Oc1ccc(Nc2nc3c(-c4nnc[nH]4)cccc3c3cnccc23)c(Cl)c1	> 10000	> 30000	> 10000	< 100	< 100	> 10000	> 10000	4170	–
Oc1ccc(Nc2nc3c(-c4nnc[nH]4)cccc3c3cnccc23)c(Cl)c1	2380	< 500	< 500	< 100	> 10000	< 1000	–	–	–
O=C(O)c1ccc2c(c1)nc(Nc1cccc(C(F)(F)F)c1)c1nc(NC3CC3)ncc12 [Compound A3]	–	–	–	–	–	–	–	–	tumor progression [11]: significantly inhibited tumor progression
O=C(O)c1ccc2c(c1)nc(OCCCO)c1ccccc12 [drawing 559]	–	–	–	–	–	–	–	–	inhibition at 5 µM [1]: 38%; IC50 [2]: 400 nM
COC(=O)c1ccc2c(c1)nc(Cl)c1ccsc12 [drawing 695]	–	–	–	–	–	–	–	–	inhibition at 10 µM [1]: 18%; PARP % inhib @ 1 uM [2]: 18%
O=C(O)c1ccc2c(c1)nc(NCCc1ccccc1)c1ccncc12 [drawing 988]	–	–	–	–	–	–	–	–	IC50 [12]: 47 µM; IC50 [13]: 8.6 µM; IC50 [14]: 14.7 µM
O=C(O)c1ccc2c(c1)nc(NCCc1cccc(F)c1)c1ccncc12 [drawing 1002]	–	–	–	–	–	–	–	–	IC50 [15]: 5.83 µM; IC50 [12]: 47.2 µM; IC50 [13]: 10.3 µM; IC50 [14]: > 50 µM
C#Cc1cccc(Nc2nc3cc(C(=O)O)ccc3c3cncnc23)c1 [drawing 1129]	–	–	–	–	–	–	–	–	F(0-24 h) ([16]; PO 24.5 mg/kg): 26.5%; F(0-Inf) ([16]; PO 24.5 mg/kg): 31.1%; Kel ([16]; PO 24.5 mg/kg): 0.0594 h⁻¹; half-life ([16]; IV 3.4 mg/kg): 4.9 h; half-life ([16]; PO 24.5 mg/kg): 11.7 h
CNC(=O)c1cccc2c1nc(Nc1cccc(Cl)c1)c1ccncc12 [drawing 2307]	> 10000	> 30000	> 10000	< 100	< 100	< 500	–	–	–

Reference: US8168651B2, “Protein kinase modulators” (Cylene Pharmaceuticals, Inc., priority 2008, dated 2012)
